Where “and” joins values, the source holds several entries; their conditions need not be identical. Identical values can stand only once.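 Test compounds were applied to cells in 96-well plates for 48 hours at 5 doses. GI50 = concentration required for 50% inhibition of growth. At the TGI there is no net growth.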
Tests used:
Assay in all cases: NCI-60 cell line screen, 48 h
ACHN renal = tested on: ACHN renal
DLD-1 colon = tested on: DLD-1 colon
EKVX NSCLC = tested on: EKVX NSCLC
HOP-62 NSCLC = tested on: HOP-62 NSCLC
HOP-92 NSCLC = tested on: HOP-92 NSCLC
OVCAR-4 ovarian = tested on: OVCAR-4 ovarian
SK-MEL-2 melanoma = tested on: SK-MEL-2 melanoma
HT29 colon = tested on: HT29 colon
KM20L2 colon = tested on: KM20L2 colon
NCI-H522 lung = tested on: NCI-H522 lung

Compound	TGI (ACHN renal)	TGI (DLD-1 colon) [µM]	TGI (EKVX NSCLC) [µM]	TGI (HOP-62 NSCLC)	TGI (HOP-92 NSCLC) [µM]	TGI (OVCAR-4 ovarian) [µM]	TGI (SK-MEL-2 melanoma)	TGI (HT29 colon) [µM]	TGI (KM20L2 colon) [µM]	TGI (NCI-H522 lung) [µM]	GI50 (ACHN renal)	GI50 (EKVX NSCLC)	GI50 (HOP-62 NSCLC)	GI50 (HOP-92 NSCLC) [µM]	GI50 (HT29 colon)	GI50 (NCI-H522 lung) [µM]	GI50 (OVCAR-4 ovarian)	GI50 (SK-MEL-2 melanoma)
CO/C1=C\C(C)=C\C(C)C(O)C(C)C/C(C)=C/C=C/C(OC)C(C(C)C(O)C(C)C2(O)CC(O)C(C)C(C(C)C)O2)OC1=O (stereo not drawn)	13.2 µM	21.7	4.93	0.000847 µM	0.0225	15.6	0.0141 µM and 0.0178 µM	–	–	–	–	–	–	–	–	–	–	–
COc1cccc(C(=O)N2CCc3ccccc32)c1OC	> 100 µM	–	> 100	> 100 µM	> 100	> 100	> 100 µM	> 100	> 100	> 100	–	–	–	–	–	–	–	–
CCOC(=O)C1(Cc2ccccc2)CCCCCN1 (stereo not drawn)	> 100 µM	> 100	> 100	> 100 µM	> 100	> 100	–	> 100	> 100	–	–	–	–	–	–	–	–	–
O=C(O)/C(=C/c1c(O)ccc2ccccc12)c1csc(-c2nc(/C(=C\c3c(O)ccc4ccccc34)C(=O)O)cs2)n1	18.8 µM	35.5	> 100	22.2 µM	7.77	–	10.2 µM	52.2	50.6	–	–	–	–	–	–	–	–	–
O=C(c1ccc2ncc(-c3nc(NC4CC4)ncc3F)n2c1)N1CCOCC1	12.4 µM	–	71.7	8.28 µM	6.86	10.9	3.81 µM	13.1	–	7.41	1.56 µM	2.85 µM	2.95 µM	1.93	2.22 µM	1.99	2.8 µM	1.66 µM
CC/C=C\C[C@H](O)C/C=C1/C(=O)C=C[C@@H]1C/C=C\CCCC(=O)N(C)C	3.43 µM	–	15.6	8.35 µM	7.12	13.5	7.13 µM	2.97	–	2.98	1.45 µM	3.92 µM	1.99 µM	2.56	0.853 µM	1.33	2.07 µM	2.5 µM
COCC(=O)CP(=O)(OC)OC	> 100 µM	–	> 100	> 100 µM	> 100	> 100	> 100 µM	> 100	–	> 100	–	–	–	–	–	–	–	–
Cc1c(C(=O)c2ccccc2C(=O)O)c2ccccc2n1C	> 100 µM	> 100	> 100	> 100 µM	–	> 100	> 100 µM	> 100	> 100	–	–	–	–	–	–	–	–	–
CC(=O)O[C@H]1CC[C@@]2(C)C(=CC[C@H]3[C@@H]4C/C(=C\c5cccc(OCCN6CCOCC6)c5)[C@H](OC(C)=O)[C@@]4(C)CC[C@@H]32)C1	42.9 µM	–	36.7	19.5 µM	16.8	> 100	24.5 µM	5.11	–	27.5	13.8 µM	11 µM	6.29 µM	4.32	2.16 µM	12.9	8.16 µM	12.2 µM
C#CC1(O)C(COP(=O)(O)OC2CC(n3cc(F)c(=O)[nH]c3=O)OC2CO)OC(n2ccc(N)nc2=O)C1O (stereo not drawn)	–	–	16	> 100 µM	3.75	8.49	1.66 µM	> 100	–	3.15	< 0.01 µM	0.738 µM	< 0.01 µM	< 0.0242	< 0.0139 µM	< 0.014	0.143 µM	0.0735 µM
O=C(NCCCNc1cc(-c2cn(-c3ccccc3)nc2-c2cccc(O)c2)ccn1)c1ccccc1	> 100 µM	–	> 100	14.1 µM	24.5	77.3	13.7 µM	5.23	–	17.1	3.47 µM	3.16 µM	3.79 µM	1.7	1.71 µM	3.06	3.56 µM	3.42 µM
CN1CCCN(C)C1c1cc([N+](=O)[O-])ccc1O	64.3 µM	–	> 100	> 100 µM	76.6	> 100	> 100 µM	> 100	–	> 100	–	–	–	–	–	–	–	–
O=C(Nc1ccc(Cl)cc1)c1ccc(NC2=C(Cl)C(=O)N(Cc3ccccc3)C2=O)cc1	35.3 µM	–	89.5	27.7 µM	25.1	43.4	40.4 µM	> 100	–	30.7	15.7 µM	26.7 µM	14.1 µM	9.19	20 µM	8.55	18.3 µM	14.2 µM
C=C1C(=O)O[C@H]2[C@H]1CC/C(COC(=O)NCc1ccc(Cn3c(=O)sn(CCCCl)c3=O)cc1)=C\CC[C@@]1(C)O[C@@H]21	3.05 µM	–	12.2	27.5 µM	2.47	3.83	17.4 µM	5.58	–	1.94	1.66 µM	2.82 µM	13.9 µM	1.1	2.46 µM	0.538	1.67 µM	4.83 µM
CN1NC2(CCCCC2)ON=C1c1ccccc1	> 100 µM	> 100	> 100	> 100 µM	> 100	> 100	–	> 100	> 100	> 100	–	–	–	–	–	–	–	–
CCCCCCCCCCN(CCCCCCCCCC)CC(=O)c1ccc2cc(Br)c3ccccc3c2c1	3.19 µM	–	19.8	3.4 µM	5.12	5.16	3.48 µM	2.77	–	3.27	1.68 µM	5.31 µM	1.63 µM	1.88	1.32 µM	1.56	2.38 µM	1.84 µM
Cn1ncc2c(N)nc(N3CCCCC3)nc21	> 100 µM	–	> 100	> 100 µM	> 100	> 100	71.6 µM	68.6	–	63.9	33.6 µM	91.2 µM	51.9 µM	44.3	22.5 µM	23	27.2 µM	23 µM
COc1cc2c3c(n(CCCNCCN)c(=O)c2cc1OC)-c1cc2c(cc1C3=O)OCO2	1.01 µM	–	17.2	1.73 µM	15.6	2.47	8.67 µM	10.4	–	2.29	0.304 µM	4.58 µM	0.189 µM	2.31	1.08 µM	0.245	0.475 µM	2.63 µM

Compound	TGI (ACHN renal)	TGI (DLD-1 colon) [µM]	TGI (EKVX NSCLC) [µM]	TGI (HOP-62 NSCLC)	TGI (HOP-92 NSCLC) [µM]	TGI (OVCAR-4 ovarian) [µM]	TGI (SK-MEL-2 melanoma)	TGI (HT29 colon) [µM]	TGI (KM20L2 colon) [µM]	TGI (NCI-H522 lung) [µM]	GI50 (ACHN renal)	GI50 (EKVX NSCLC)	GI50 (HOP-62 NSCLC)	GI50 (HOP-92 NSCLC) [µM]	GI50 (HT29 colon)	GI50 (NCI-H522 lung) [µM]	GI50 (OVCAR-4 ovarian)	GI50 (SK-MEL-2 melanoma)
COC1OC(CO)C(O)C(O)C1Br (stereo not drawn)	> 100 µM	> 100	–	> 100 µM	> 100	> 100	–	> 100	> 100	> 100	–	–	–	–	–	–	–	–
Cc1c(C(=O)NCCO)[n+](=O)c2cc(Cl)ccc2n1[O-]	> 100 µM	> 100	> 100	> 100 µM	> 100	> 100	–	> 100	> 100	–	–	–	–	–	–	–	–	–
CCOC(=O)C(=Cc1ccccc1[N+](=O)[O-])C(=O)OCC	4.31 µM	–	20.9	12.9 µM	8.8	18.1	11.9 µM	9.39	–	4.63	2.06 µM	6.61 µM	3.48 µM	3.67	3.27 µM	1.86	4.68 µM	4.01 µM
CC1=C[C@H]2c3c(c(O)c(O)c4oc5ccccc5c(=O)c34)[C@H](c3cc(O)c(O)c4oc5ccccc5c(=O)c34)[C@H]2C(C)(C)C1	9.22 µM	–	12.8	8.35 µM	5.43	20.2	6.72 µM	13.8	–	5.57	0.863 µM	1.44 µM	0.978 µM	1.39	0.86 µM	1.77	0.786 µM	2.24 µM
C=C=C(CC)C(C(=O)OC)N(CC)CC (stereo not drawn)	> 100 µM	> 100	> 100	> 100 µM	> 100	> 100	–	> 100	> 100	> 100	–	–	–	–	–	–	–	–
CCOc1cc2c(NCCCN(CCO)CCO)ncnc2c(OCC)c1OCC	> 100 µM	–	> 100	> 100 µM	> 88	> 100	> 100 µM	> 100	–	> 100	–	–	–	–	–	–	–	–
COc1ccc2c(Nc3ccc(NS(C)(=O)=O)cc3)c3ccccc3nc2c1	1.58 µM	–	8.2	2.72 µM	2.66	4.13	2.29 µM	1.58	–	1.84	0.217 µM	1.43 µM	0.429 µM	0.136	0.326 µM	0.304	1.23 µM	0.334 µM
NNc1cccc(/C=C/c2ccccc2)cc1=O	> 100 µM	–	35.8	> 100 µM	70.7	> 100	> 100 µM	> 100	–	> 100	7.27 µM	3.27 µM	9.3 µM	8.71	10.7 µM	8.18	4.66 µM	70.1 µM
COc1ccc(/C=C/c2nc(NCCCN(C)C)c3ccccc3n2)cc1	31.7 µM	–	21.1	9.74 µM	8.15	5.58	3.52 µM	3.13	–	3.66	17.1 µM	5.17 µM	5.16 µM	2.5	1.61 µM	1.83	2.07 µM	1.88 µM
O=c1[nH]c(=O)n(C2OC(CO)C(O)C2O)c2c1CCCC2 (stereo not drawn)	> 100 µM	–	> 100	> 100 µM	> 100	> 100	> 100 µM	> 100	–	> 100	–	–	–	–	–	–	–	–
CCC(=O)C(C)C1=Nc2nnc(CCCCCCCc3nnc4n3C(=O)C(C(C)C(=O)CC)=N4)n2C1=O (stereo not drawn)	> 100 µM	–	> 100	> 100 µM	> 100	–	–	> 100	> 100	> 100	–	–	–	–	–	–	–	–
O=[N+]([O-])c1ccc(N/N=C/c2c(O)ccc3ccccc23)nc1	> 100 µM	–	> 100	> 100 µM	99.4	> 100	> 100 µM	> 100	–	> 100	0.775 µM	6.5 µM	6.82 µM	7.94	> 100 µM	3.74	0.783 µM	> 100 µM
C[C@]1(CO)[C@H]2CC[C@@]34C=C[C@@](CO)(CC[C@H]3[C@]2(C)CC[C@H]1O)C4	> 100 µM	–	> 100	> 100 µM	> 100	> 100	> 100 µM	> 100	–	> 100	–	–	–	–	–	–	–	–
CCOC(=O)C(Cc1c[nH]c2ccc(N(CCCl)CCCl)cc12)(NC(C)=O)C(=O)OCC	17.3 µM and 8.2 µM	–	403	51.7 µM and 66.8 µM	250	682	19.3 µM and 65.9 µM	77.4	–	1.93	0.917 µM and 0.342 µM	52.2 µM and 38.7 µM	14.4 µM and 10.1 µM	14.1	16.9 µM and 13.9 µM	0.17	53 µM and 47.8 µM	5.04 µM and 27.6 µM
CC(=O)O[C@H]1CC[C@@]2(C)C(=CC[C@H]3C4=CC=C(C(C)=O)[C@@]4(C)CCC32)C1 (stereo partly drawn)	> 100 µM	> 100	> 100	> 100 µM	> 100	> 100	–	> 100	> 100	46.1	–	–	–	–	–	–	–	–
CC(C)c1ccc(C(=O)Nc2sc3c(c2C#N)CCC(=O)C3)cc1	1.06 µM	–	> 88.8	> 87.6 µM	2.4	1.36	5.97 µM	> 21.9	–	2.16	0.33 µM	1.94 µM	3.02 µM	0.607	0.465 µM	0.248	0.294 µM	1.6 µM
C=C1C(=O)OC2CC1C(O)C/C(C)=C/CC/C(C)=C/C(O)CC2C (stereo not drawn)	3.75 µM	–	5.81	25.2 µM	4.17	11.5	12.2 µM	4.61	–	0.504	–	–	–	–	–	–	–	–
CC(=O)OC1CC2C(C)(C)C(=O)C=C[C@]2(C)C2CCC3(C)C(c4ccoc4)C(=O)[C@H]4O[C@]43[C@]12C (stereo partly drawn)	45.1 µM	28.3	89.2	42.7 µM	34.4	> 100	43.4 µM	–	–	36.9	–	–	–	–	–	–	–	–

Reference: PubChem BioAssay (NCI)
